Source: PubChem BioAssay AID1996
Values after ≈ are worked out from the molar mass of the structure shown.

conditions: buffer; pH 7.4; 200.0 µM

Compared with `COc1ccc(Br)cc1C(=O)Nc1cccc2ncccc12`, `COc1ccc(Nc2ncnc3ccc(C)cc23)cc1` is higher in solubility kinetic: 1.7 µg/mL (≈ 4.76 µM) for the first, over 39.8 µg/mL for the second.

`CC(=O)c1c(C)[nH]c(C(=O)N2CCN(c3ccccn3)CC2)c1C` and `COC(=O)c1c(C)[nH]c(C(=O)NCc2ccco2)c1C` are within 1.5-fold of each other in solubility kinetic: 42.4 µg/mL (≈ 130 µM) for the first, 35.3 µg/mL (≈ 128 µM) for the second.

First: Cn1c(=NC(=O)COc2ccccc2)sc2cc(F)cc(F)c21
Second: N/C(=N\OC(=O)COc1ccccc1)c1ccncc1
The solubility kinetic of the first is lower: under 0.4 µg/mL for the first, over 40.7 µg/mL for the second.

`CCN(CC(=O)Nc1cc(Cl)cc(Cl)c1)CC(=O)NC1CCS(=O)(=O)C1` (centres undefined) and `CCN(CC)c1ccc(NC(=O)C2CCCC2)cc1` are within 1.5-fold of each other in solubility kinetic: 52.3 µg/mL (≈ 124 µM) for the first, 35.4 µg/mL (≈ 136 µM) for the second.

First: O=[N+]([O-])c1ccccc1S(=O)(=O)NCCc1ccncc1
Second: O=[N+]([O-])c1ccccc1S(=O)(=O)Nc1cccc2cccnc12
The solubility kinetic of the first is 24-fold higher: 43.8 µg/mL (≈ 143 µM) for the first, 1.8 µg/mL (≈ 5.47 µM) for the second.

Compared with `O=S(=O)(c1ccccc1)N1CCN(C(=S)NCCc2ccccc2)CC1`, `CC(CN1CCN(Cc2ccccc2)CC1)c1ccccc1.O=C(O)C(=O)O` (centres undefined) is 14-fold higher in solubility kinetic: 0.5 µg/mL (≈ 1.28 µM) for the first, 7.2 µg/mL for the second.

`CC(=O)N1CCN(C23CC4CC(CC(C4)C2)C3)CC1` and `CN1CCCN(C(=O)COc2ccccc2Br)CC1` cannot be ordered by solubility kinetic: over 39.4 µg/mL for the first, over 49.1 µg/mL for the second.

Going from `CCN(CC)CCCN(C(=O)c1ccc(F)cc1)c1nc(-c2ccc(OC)cc2)cs1` to `COc1ccc(CCC(C)N(C)Cc2ccccc2)cc1` (centres undefined), the solubility kinetic falls from 62.1 µg/mL (≈ 141 µM) to 34.9 µg/mL (≈ 123 µM) (1.8-fold).

Compared with `CCc1ccc(OCCCC(=O)Nc2cccc(C(=O)O)c2)cc1`, `Cc1cccc(-c2noc(CCC(=O)Nc3ccc(C(N)=O)cc3)n2)c1` is lower in solubility kinetic: over 49.1 µg/mL for the first, 0.5 µg/mL (≈ 1.43 µM) for the second.

`CCCN1CCC(NCC(C)c2ccccc2)CC1` (centres undefined) and `CCCNC(=S)N1CCC(Cc2ccccc2)CC1` are within 1.5-fold of each other in solubility kinetic: 38.8 µg/mL (≈ 149 µM) for the first, 28.3 µg/mL (≈ 102 µM) for the second.

First: Cn1c(SCc2ccc([N+](=O)[O-])cc2)nnc1-c1ccncc1
Second: Cc1cc(C)nc(SCc2ccc(Br)cc2)n1
The solubility kinetic of the first is higher: over 49.1 µg/mL for the first, 1.5 µg/mL (≈ 4.85 µM) for the second.

`Cc1ccc(C#N)c(SCCN2CCCCC2)n1` and `COc1ccc(/C=C(\C#N)C(=O)ONC2=NCCCCC2)cc1` are within 1.5-fold of each other in solubility kinetic: 32.4 µg/mL (≈ 124 µM) for the first, 42.8 µg/mL (≈ 137 µM) for the second.

First: CNC(=O)COC(=O)CCC(=O)c1cccs1
Second: CC(=O)Nc1ccc(C(=O)NCC(=O)OCc2ccccc2F)cc1
The solubility kinetic of the first is 4.2-fold higher: 31.6 µg/mL (≈ 124 µM) for the first, 7.5 µg/mL (≈ 21.8 µM) for the second.

Compared with `Cc1ccc(CCNC(=O)C2CCCN(S(C)(=O)=O)C2)cc1` (centres undefined), `Cc1ccc(S(=O)(=O)N(CC(=O)N2CCOCC2)c2ccc(C(C)C)cc2)cc1` is lower in solubility kinetic: over 48.7 µg/mL for the first, 4.6 µg/mL (≈ 11 µM) for the second.

Compared with `Cn1c(=O)c2cc3c(nc2n(C)c1=O)CC(c1ccccc1)CC3=O` (centres undefined), `C=CCn1c(N2CCCC2)nc2c1c(=O)n(C)c(=O)n2C` is higher in solubility kinetic: 0.5 µg/mL (≈ 1.49 µM) for the first, over 43.4 µg/mL for the second.

`NC(=O)c1ccsc1NC(=O)CSc1nnc2ccccn12` and `COC(=O)c1cccc(NC(=O)CSc2nnc(C)n2C)c1` cannot be ordered by solubility kinetic: over 50 µg/mL for the first, over 48.1 µg/mL for the second.

`Cl.OCCN1CCN(c2nc3ccccc3nc2-c2ccccc2)CC1` and `C[C@H](NC(=O)c1ccccc1)C(=O)N1CCN(Cc2ccc3c(c2)OCO3)CC1` cannot be ordered by solubility kinetic: over 55.6 µg/mL for the first, over 59.3 µg/mL for the second.

`S=C1SCN(Cc2ccco2)CN1Cc1ccco1` and `O=C(CN1C(=O)C(=O)N(Cc2ccco2)C1=O)Nc1ccc(F)c(F)c1F` cannot be ordered by solubility kinetic: over 44.2 µg/mL for the first, 52.4 µg/mL (≈ 137 µM) for the second.

Compared with `O=C(CN1C(=O)NC2(CCCc3ccccc32)C1=O)NCCc1ccc(F)cc1` (centres undefined), `COc1ccc(C(=O)N2CCc3c([nH]c4ccccc34)C2C(F)(F)F)cc1` (centres undefined) is lower in solubility kinetic: over 59.3 µg/mL for the first, 1.1 µg/mL (≈ 2.94 µM) for the second.

Compared with `O=C(Nc1csc(Cl)c1)c1ccccc1`, `O=C(Nc1ccc(Cl)c(S(=O)(=O)N2CCOCC2)c1)c1cccs1` is 1.9-fold lower in solubility kinetic: 6.2 µg/mL (≈ 26.1 µM) for the first, 3.2 µg/mL (≈ 8.27 µM) for the second.

`Cc1ccc(C)c(S(=O)(=O)NC2CCSC2=O)c1` (centres undefined) and `Cc1cc(Br)ccc1S(=O)(=O)n1ccnc1C` cannot be ordered by solubility kinetic: over 42.8 µg/mL for the first, over 47.3 µg/mL for the second.

Compared with `Cc1csc(NC(=O)Cc2ccc(Br)cc2)n1`, `COc1ccc2c(CC(=O)NNC(=O)c3ccc(O)cc3)coc2c1` is higher in solubility kinetic: 36.5 µg/mL (≈ 117 µM) for the first, over 51.1 µg/mL for the second.

Going from `O=C(O)c1ccccc1C(=O)N(c1ccccc1)c1ccccc1` to `CN(C(=O)COC(=O)c1ccc(S(=O)(=O)N2CCOCC2)cc1)c1ccccc1`, the solubility kinetic falls from 46.8 µg/mL (≈ 147 µM) to 15.8 µg/mL (≈ 37.8 µM) (3-fold).

`C[C@@H](C(=O)Nc1ccc(OC(F)F)c(Cl)c1)N1C(=O)C2CC=CCC2C1=O` (some centres undefined) and `O=C(COC(=O)C1CCC(=O)N1)Nc1ccccc1OC(F)F` (centres undefined) cannot be ordered by solubility kinetic: over 59.8 µg/mL for the first, over 49.2 µg/mL for the second.

`CC1CC(C)(C)NC(=S)N1CCCC(=O)Nc1ccc(F)cc1` (centres undefined) and `COc1cc([N+](=O)[O-])ccc1NC(=O)CSc1nccn1C` are within 1.5-fold of each other in solubility kinetic: 42.8 µg/mL (≈ 127 µM) for the first, 42.5 µg/mL (≈ 132 µM) for the second.

Going from `CC(=O)c1ccc2noc(-c3ccc(C)cc3)c2c1` to `O=C(Nc1cc(Cl)ccc1O)c1cc(-c2ccco2)on1`, the solubility kinetic falls from 26.2 µg/mL (≈ 104 µM) to 1.4 µg/mL (≈ 4.59 µM) (19-fold).

`CC1CC(C)CN(c2ccc([N+](=O)[O-])nc2)C1` (centres undefined) and `CC1CCN(C2CC(=O)N(c3ccc(Br)cc3Br)C2=O)CC1` (centres undefined) are within 1.5-fold of each other in solubility kinetic: 28.6 µg/mL (≈ 122 µM) for the first, 40.4 µg/mL (≈ 93.9 µM) for the second.

`O=C(COC(=O)Cn1cnc2ccccc21)Nc1ccccc1C(F)(F)F` and `CCOC(=O)C1=C(C)NC(C)=C(C(=O)OCC)C1C(=O)OCC(=O)NCCc1ccccc1` cannot be ordered by solubility kinetic: over 56.6 µg/mL for the first, over 68.8 µg/mL for the second.

`CC(C)Oc1ccc(C2CC(=O)N(C)C2=O)cc1` (centres undefined) and `COCCn1c(C(C)C)nc2ccccc21` cannot be ordered by solubility kinetic: over 37.1 µg/mL for the first, over 32.7 µg/mL for the second.

`O=C1C(Cc2c[nH]c3ccccc23)NC(=S)N1C1CCCCC1` (centres undefined) showed a solubility kinetic of 49 µg/mL (≈ 150 µM).
